The values below come from US20240117005A1, “NOVEL BICYCLIC PEPTIDES” (THE COUNCIL OF THE QUEENSLAND INSTITUTE OF MEDICAL RESEARCH, priority 2021, published 2024).

In one assay the test system is CSC. Kind of assay: CSC inhibition (Table 10 summary). The format is cell-based. The note with it: linear peptide derivatives; change stated relative to prototype PDL1-L1.
The subject of the next assay is MDA-MB-231 cells. Kind of assay: WST-1 cell proliferation assay, MDA-MB-231. The note with it: for inhibition of proliferation: MDA-MB-231, WST-1, 72 hours. The class given is cell-based, human. The method, then:
MDA-MB-231 cells were seeded at 4×10^3 cells/well into a 96-well flat bottom tissue culture plate in a final volume of 100 ul and left to adhere for 24 hours at 37° C. and 5% CO2. Cells were then treated with inhibitors for 72 hours at a final concentration of 200, 100, 50, 25, 12.5 or 6.25 μM. Following inhibition, media was removed and replaced with 100 μL/well of WST-1 cell proliferation reagent (Sigma-Aldrich, Cat# 11644807001) at 1:10 final dilution. Absorbance was recorded at 450 nm at 1, 2, 3, and 4 hour incubation periods using a microplate spectrophotometer (with 30 sec mix time). Data represent a single independent experiment performed in triplicate, results are graphed as mean +/− standard error (SE).
(§1) (A) CT26, 4T1 or MDA-MB-231 Cells were treated with inhibitors for 72 hours. Following inhibition, media was removed and replaced with WST-1 cell proliferation reagent. Absorbance was recorded at 450 nm after 1 hour. Data represent a single independent experiment performed in triplicate. Results are graphed as mean +/− standard error (SE). B) MDA-MB-231 or CT26 cancer cells were treated with vehicle control, DL-2-Batch 1 (original stock), DL-2-Batch 2 (current stock), DL-2-TBAB or linear PDL1. Cells were permeabilised and were probed with the DUOLINK ligation assay. Cover slips were mounted on glass microscope slides with ProLong nucblue glass Antifade reagent (Life Technologies). PDL1Ac and IMPα1 DUOLINK Digital images were analysed using ImageJ software (ImageJ, NIH, Bethesda, MD, USA) and graphs represent the mean DOT Fluorescent Intensity in the nucleus or the cytoplasm compartments with significant differences calculated as per one-way ANOVA comparison. (C) MDA-MB-231 or CT26 cancer cells were treated with vehicle control, DL-2-Batch 1 (Original stock), DL-2-Batch 2 (current stock), DL-2-TBAB or linear PDL1. Cells were permeabilised and were probed with the DUOLINK ligation assay. Cover slips were mounted on glass microscope slides with ProLong nucblue glass Antifade reagent (Life Technologies). PDL1-unmodified and IMPα1 DUOLINK digital images were analysed using ImageJ software (ImageJ, NIH, Bethesda, MD, USA) and graphs represent the mean DOT fluorescent intensity in the nucleus or the cytoplasm compartments with significant differences calculated as per one-way ANOVA comparison.
(§2) 4T1, CT26 or MDA-MB-231 cancer cell lines were treated with DL-2 or DL-2-D bicyclic inhibitors for 72 hours. Following inhibition, media was removed and replaced with WST-1 cell proliferation reagent. Absorbance was recorded at 450 nm after 1 hour. Data represent a single independent experiment performed in triplicate; results are graphed as mean +/− standard error (SE).
Cells weretreated with inhibitors for 48 hours. Following inhibition, media was removed and replaced with WST-1 cell proliferation reagent. Absorbance was recorded at 450 nm after 1 hour.
Background: Tetrazolium assays rely on reduction of a dye to a coloured formazan, in cell work by metabolically active cells.

In another assay the test system is CT26 cells. In words: WST-1 cell proliferation assay, CT26. The format is cell-based, mouse. The note with it: CT26, WST-1, 72 hours. The method, then:
as §1, §2

A further assay has as its system 4T1 cells. Kind of assay: WST-1 cell proliferation assay, 4T1. As to conditions: 4T1, WST-1, 72 hours. The class given is cell-based. As to the method: as §1, §2
Another assay addresses T1, PDL2:IMPα1 complex (Homo sapiens, UniProt P52292).
T1 construct: with concentrations ranging from 10 μM to 0.00975 μM; endogenous in cells; host or cells: MDA-MB-231
Kind of assay: Binding specificity assay (DUOLINK PDL2 and IMPα1). The format is cell-based. As to conditions: MDA-MB-231, any concentration (10 μM to 0.00975 μM). As to the method: MDA-MB-231 cells were treated with DL-2; with concentrations ranging from 10 μM to 0.00975 μM. Cover slips were mounted on glass microscope slides with Prolong nucleus glass Antifade reagent (Life Technologies). PDL2 and IMPα1 DUOLINK Digital images were analyzed using ImageJ software (ImageJ, NIH, Bethesda, MD, USA) and graphs represent the mean DOT Fluorescent Intensity in the nucleus or the cytoplasm compartments with significant differences calculated as per Kruskal-Wallis one-way ANOVA.

For assay [1], the system named is PKCθ, LSD1, p65, C-Rel, SET, pSTAT3. Kind of assay: Determination of nuclear-associated proteins. The class given is cell-based, human. As to conditions: MDA-MB-231, 10 μM. The method, then: MDA-MB-231 cells were treated with DL-2 with concentration of 10 μM. MDA-MB-231 cells were treated with DL-2 or control and were permeabilised before being probed with the antibodies specific for PKCθ, LSD1, p65, C-Rel, SET, pSTAT3. Cover slips were mounted on glass microscope slides with ProLong nucblue glass Antifade reagent (Life Technologies). Digital images were analysed using ImageJ software (ImageJ, NIH, Bethesda, MD, USA) and graphs represent the mean fluorescence intensity in the nucleus or the cytoplasm compartments with significant differences calculated as per Mann-Whitney pairwise comparison.

“Also recorded” adds a separate entry of the source. No end group written: not given here. *: point of attachment. Myristyl = CCCCCCCCCCCCCC*

“LTFIFRLRKGRMMDVKK (Myristyl-LTFIFRLRKGRMMDVKK) [PDL1-L1, Myristyl- linear peptide, prototype]”: the “Potency (CSC inhibition)” value with CSC is recorded as “Weak”.
For `CCCCCCCCCCCCCC(=O)NC(C)C(=O)NC1CSCc2cc3cc(c2)CSC[C@H](NC(=O)[C@H](Cc2ccccc2)NC(=O)[C@H](C(C)CC)NC(=O)[C@H](Cc2ccccc2)NC(=O)[C@H]([C@@H](C)O)NC(=O)C(CC(C)C)NC1=O)C(=O)N[C@@H](CCCNC(C)=N)C(=O)N[C@@H](CC(C)C)C(=O)N[C@@H](CCCNC(=N)N)C(=O)N[C@@H](CCCCN)C(=O)NCC(=O)N[C@@H](CCCNC(=N)N)C(=O)NC(C(=O)N[C@@H](CCSC)C(=O)NC(CCSC)C(=O)N[C@@H](CC(=O)O)C(=O)NC(C(=O)N[C@@H](CCCCN)C(=O)NC(CCCCN)C(=O)O)C(C)C)CSC3` (mixture of isomers) [DL-2], the inhibition of proliferation entry with MDA-MB-231 cells is given as “able to inhibit proliferation; also recorded: significantly inhibit the proliferation”; in the assay on MDA-MB-231 cells (listed as DL-2-TBMB) it was “able to effectively inhibit the proliferation”; in the assay with CT26 cells it was “significantly inhibit the proliferation”; with CT26 cells (listed as DL-2-TBMB) it was “able to effectively inhibit the proliferation”; in the assay on 4T1 cells it was “significantly inhibit the proliferation”; in the assay with 4T1 cells (listed as DL-2-TBMB), “able to effectively inhibit the proliferation”. Also, the “potency of proliferation inhibition relative to DL-1” value with MDA-MB-231 cells (MDA-MB-231, higher potency than DL-1) is on record as 2-3 fold. Also, on PDL2:IMPα1 complex, the “PDL2:IMPα1 complex (DUOLINK)” value was “no significant effect”. For the same compound, in assay [1], the “off-target effects on nuclear proteins (PKCθ, LSD1, p65, C-Rel, SET, pSTAT3)” value was “No off-target effects were observed”.
